Source: US20070020713A1, “Antibodies to the fuel oxygenate mtbe and use thereof in immunoassays” (priority 2003, published 2007)
Where a name gives a salt, the structure may show the parent alone.

Tested on: anti-MTBE antibody prepared in Example 1 (anti-MTBE/7-methoxy-3,7-dimethyloctanal antibody)
Assay: Anti-MTBE monoclonal antibody cross-reactivity, indirect competitive ELISA
Format: binding
Conditions: for IC50 (concentration of analyte required to inhibit the maximum assay signal B0 by 50%): B/B0=50%, read from FIG. 4

## COC(C)(C)C [MTBE, methyl tert-butyl ether]
  IC50 (concentration of analyte required to inhibit the maximum assay signal B0 by 50%): ~10 µg/mL

## CCC(C)(C)OC [TAME, methyl tert-amyl ether]
  IC50 (concentration of analyte required to inhibit the maximum assay signal B0 by 50%): ~10 µg/mL

## CC(C)(C)O [TBA, tert-butyl alcohol]
  IC50 (concentration of analyte required to inhibit the maximum assay signal B0 by 50%): ~180 µg/mL

## CC(C)(C)OC=O [TBF, tert-butyl formate]
  IC50 (concentration of analyte required to inhibit the maximum assay signal B0 by 50%): ~60 µg/mL

## CO [methanol]
FIG. 4
  cross-reactivity of the antibody: no significant cross-reactivity
